# From patent US4423076A, “1-Branched-alkyl-3-(2-haloethyl)-3-nitrosoureas as novel antitumor agents” (National Foundation for Cancer Research, Inc., priority 1979, dated 1983)
# Key:
# [1] = Toxicity of single-dose NCNU ip in normal mice (deaths); design: species or system CDFl mice; conditions: in vivo; for mortality at 192 h: at day 8; for mortality at 24 h: at day 1; for mortality at 216 h: at day 9
# Procedure: Toxicity studies were conducted by injecting a single dose of NCNU ip.
# Toxicity of NCNU in CDFl Normal Mice
# [2] = test system: murine leukemia P388 tumor cells; experiment: Single-dose treatment against two-day murine leukemia P388 (increase in median lifespan); assay type: in vivo, CDF1 mice
# Procedure: (§1) A single dose of 1-neopentyl-3-(2-chloroethyl)-3-nitrosourea (NCNU) was injected intraperitoneally (ip) in CDF1 mice which had been implanted ip two days earlier with approximately 10×10^5 murine leukemia L1210 tumor cells. The NCNU was dissolved in emulphor EL-620 (polyoxyethylated; GAF Corporation, New York, N.Y.) and raised to the desired volume with 0.85% sodium chloride.
# The study of Experiment I was conducted using approximately 5×10^5 murine leukemia P388 tumor cells (0.1 ml of a 1:100 dilution).
# (§2) Effects of Single-Dose Treatment with NCNU Against
# Two-Day Murine Leukemia P388
# (§3) experiments are continuing.
# [3] = test system: murine leukemia L1210 tumor cells; experiment: Single-dose treatment against two-day murine leukemia L1210 (increase in median lifespan); assay type: in vivo, CDF1 mice
# Procedure: as §1, §2
# Two-Day Murine Leukemia L1210
# as §3
# various forms of cancer = experiment: Human studies, patients having advanced stages of various forms of cancer; assay type: in vivo; conditions: two 25 mg/kg sc doses or iv, total 50 mg/kg daily
# Procedure: Patients having advanced stages of various forms of cancer are treated by subcutaneous injection of two 25 mg/kg doses of NCNU in water or by intravenous administration of 1 milligram NCNU/ml 0.9% saline to provide a total daily dose of 50 mg/kg; a full clinical examination is carried out prior to and after administration. Tumor growth is measured where possible by palpition, X-rays and photography.
# [4] = test system: Yancey's lymphocytic leukemia (YLL); experiment: NCNU against Yancey's lymphocytic leukemia, treatment begun day 2 or 7, several schedules; assay type: in vivo, mouse
# Procedure: (§4) The effect of NCNU was tested against Yancey's lymphocytic leukemia (YLL) which had been implanted subcutaneously (sc) two days before injection of the drug. The single injection of 0.1 ml of a solution of one spleen of a YLL bearing mouse homogenized in 10 ml Locke's Solution was given either intraperitoneally or subcutaneously.
# The study of Experiment III was conducted with NCNU treatment beginning at 2 or 7 days after implantation of YLL tumors. NCNU injection was ip or sc on a schedule of one time per week for 4 weeks, twice per week for 4 weeks, or a single dose.
# Effects of NCNU Against Yancey's
# as §3
# [5] = test system: Yancey's lymphocytic leukemia (YLL); experiment: Single-dose treatment against two-day Yancey's lymphocytic leukemia (increase in median life span); assay type: in vivo, mouse
# Procedure: as §4, §2
# Two-Day Yancey's Lymphocytic Leukemia
# as §3
# [6] = Chemical stability of isocyanates; assay type: physicochemical; conditions: for half-life: physiological pH and temperature; for stability (hydrolysis): water-acetone (1:3), 57° C., three-day period, pH 6.0
# Procedure: Both have half-lives of greater than 30 minutes at physiological pH and temperature.
# Solubility = assay type: physicochemical; conditions: prevented its clinical evaluation
smiles,measurement,setting,value
"CC(C)(C)CNC(=O)N(CCCl)N=O [NCNU, 1-neopentyl-3-(2-chloroethyl)-3-nitrosourea]",mortality,[1]; 1.0 mg/mouse ip,0%
same,mortality at 312 h,"[1]; 2.0 mg/mouse ip, at day 13, others survived",60%
same,mortality at 240 h,"[1]; 4.0 mg/mouse ip, at day 10",100%
same,mortality at 192 h,[1]; 8.0 mg/mouse ip,100%
same,mortality at 96 h,"[1]; 16.0 mg/mouse ip, at day 4",100%
same,mortality at 24 h,[1]; 20.0 mg/mouse ip,100%
same,mortality at 24 h,[1]; 32.0 mg/mouse ip,100%
same,mortality at 312 h,"[1]; mouse, 100 mg/kg ip, at day 13",100%
same,mortality at 264 h,"[1]; mouse, 150 mg/kg ip, at day 11",100%
same,mortality at 216 h,"[1]; mouse, 200 mg/kg ip",100%
same,mortality at 216 h,"[1]; mouse, 225 mg/kg ip",100%
same,mortality at 192 h,"[1]; mouse, 250 mg/kg ip",100%
same,mortality at 120 h,"[1]; mouse, 500 mg/kg ip, at day 5",100%
same,mortality at 48 h,"[1]; mouse, 750 mg/kg ip, at day 2",100%
same,mortality at 24 h,"[1]; mouse, 1000 mg/kg ip",100%
same,% ILS,[2]; 0.5 mg/mouse,41.5%
same,% ILS,[2]; 1.0 mg/mouse,91.7%
same,% ILS,"[2]; 2.0 mg/mouse, + = animals not yet all died",≥ 483%
same,% ILS (increase in median lifespan),[3]; 25 mg/kg ip,37.5%
same,% ILS (increase in median lifespan),[3]; 50 mg/kg ip,100%
same,% ILS (increase in median lifespan),"[3]; 75 mg/kg ip, + = animals not yet all died",≥ 275%
same,% ILS (increase in median lifespan),"[3]; 100 mg/kg ip, + = animals not yet all died",≥ 275%
same,inflammation,various forms of cancer,Inflammation gradually subsides
same,tumor size,various forms of cancer,tumor size frequently decreases
same,clinical improvement,various forms of cancer; within several days,marked clinical improvement within several days
same,% ILS,"[4]; 0.5 mg/mouse ip, 1x/wk for 4 wks, begun day 2",28.6%
same,% ILS,"[4]; 0.5 mg/mouse ip, once, begun day 7",6.7%
same,% ILS,"[4]; 0.5 mg/mouse sc, 1x/wk for 4 wks, begun day 2, + = animals not yet all died",≥ 114.3%
same,% ILS,"[4]; 0.5 mg/mouse sc, once, begun day 7",6.7%
same,% ILS,"[4]; 1.0 mg/mouse ip, 1x/wk for 4 wks, begun day 2",178.6%
same,% ILS,"[4]; 1.0 mg/mouse ip, once, begun day 7",66.6%
same,% ILS,"[4]; 1.0 mg/mouse sc, 1x/wk for 4 wks, begun day 2, + = animals not yet all died",≥ 207.1%
same,% ILS,"[4]; 1.0 mg/mouse sc, once, begun day 7",66.6%
same,% ILS,"[4]; 2.0 mg/mouse ip, 1x/wk for 4 wks, begun day 2",14.3%
same,% ILS,"[4]; 2.0 mg/mouse sc, 1x/wk for 4 wks, begun day 2, + = animals not yet all died",≥ 264%
same,% ILS,"[4]; 25 mg/kg ip, 1x/wk for 4 wks, begun day 2, + = animals not yet all died",≥ 100%
same,% ILS,"[4]; 25 mg/kg ip, 2x/wk for 4 wks, begun day 2, + = animals not yet all died",≥ 100%
same,% ILS,"[4]; 25 mg/kg sc, 1x/wk for 4 wks, begun day 2, + = animals not yet all died",≥ 100%
same,% ILS,"[4]; 25 mg/kg sc, 2x/wk for 4 wks, begun day 2, + = animals not yet all died",≥ 100%
same,% ILS,"[4]; 50 mg/kg ip, 1x/wk for 4 wks, begun day 2, + = animals not yet all died",≥ 100%
same,% ILS,"[4]; 50 mg/kg ip, 2x/wk for 4 wks, begun day 2, + = animals not yet all died",≥ 100%
same,% ILS,"[4]; 50 mg/kg sc, 1x/wk for 4 wks, begun day 2, + = animals not yet all died",≥ 100%
same,% ILS,"[4]; 50 mg/kg sc, 2x/wk for 4 wks, begun day 2, + = animals not yet all died",≥ 100%
same,% ILS,"[4]; 75 mg/kg ip, 1x/wk for 4 wks, begun day 2, + = animals not yet all died",≥ 100%
same,% ILS,"[4]; 75 mg/kg ip, 2x/wk for 4 wks, begun day 2",66.6%
same,% ILS,"[4]; 75 mg/kg sc, 1x/wk for 4 wks, begun day 2, + = animals not yet all died",≥ 100%
same,% ILS,"[4]; 75 mg/kg sc, 2x/wk for 4 wks, begun day 2",0%
same,% ILS,"[5]; 0.5 mg/mouse ip, single dose (first entry)",14.3%
same,% ILS,"[5]; 0.5 mg/mouse ip, single dose (second entry)",6.7%
same,% ILS,"[5]; 0.5 mg/mouse sc, single dose (first entry)",35.7%
same,% ILS,"[5]; 0.5 mg/mouse sc, single dose (second entry)",13.3%
same,% ILS,"[5]; 1.0 mg/mouse ip, single dose (first entry)",64.3%
same,% ILS,"[5]; 1.0 mg/mouse ip, single dose (second entry)",33.3%
same,% ILS,"[5]; 1.0 mg/mouse sc, single dose (first entry)",64.3%
same,% ILS,"[5]; 1.0 mg/mouse sc, single dose (second entry)",20.0%
same,% ILS,"[5]; 2.0 mg/mouse ip, single dose, + = animals not yet all died",≥ 264%
same,% ILS,"[5]; 2.0 mg/mouse sc, single dose",78.0%
same,% ILS,"[5]; 25 mg/kg ip, single dose",13.3%
same,% ILS,"[5]; 25 mg/kg sc, single dose",6.6%
same,% ILS,"[5]; 50 mg/kg ip, single dose",60.0%
same,% ILS,"[5]; 50 mg/kg sc, single dose",60.0%
same,% ILS,"[5]; 75 mg/kg ip, single dose",66.6%
same,% ILS,"[5]; 75 mg/kg sc, single dose",73.3%
CC(C)(C)CCN=C=O [neohexyl isocyanate],half-life,[6],> 30 min
same,stability (hydrolysis),[6],remarkably stable
CC(C)(C)CNC(=O)N(CC(C)(C)C)N=O,solubility,Solubility,limited solubility
CC(C)(C)CN=C=O [neopentyl isocyanate],half-life,[6],> 30 min
same,stability (hydrolysis),[6],remarkably stable
